The values that follow come from ChEMBL document CHEMBL4689842, “EUbOPEN Chemogenomics Library wave 1” (2021).

The test system of the data set is HEK-293T. Description: Incucyte cell viability with HEK293T. Further: filed as whole numbers so only -1 and 0 and 1 occur. Format: toxicity, cell-based. The conditions noted are these: human, 10 µM, compound concentration 10 uM.
The mark [1] stands for this setting: 0 h, replicate number 2, timepoint 0 hours.
[2] abbreviates: 6 h, replicate number 1, timepoint 6 hours.
[3] abbreviates: 12 h, replicate number 1, timepoint 12 hours.
Where [4] appears, read: 18 h, replicate number 1, timepoint 18 hours.
[5] abbreviates: 24 h, replicate number 1, timepoint 24 hours.
Setting [6] is: 0 h, replicate number 1, timepoint 0 hours.
Setting [7] is: 6 h, replicate number 2, timepoint 6 hours.
The mark [8] stands for this setting: 12 h, replicate number 2, timepoint 12 hours.

On to `C[C@]1(O)C[C@@H](c2nc(-c3ccc4ccc(-c5ccccc5)nc4c3)c3c(N)nccn32)C1` [LINSITINIB], for which the “Growth Rate” value is, setting by setting: under setting [1], 1; under setting [2], 0; under setting [3], 0; under setting [4], 0; under setting [5], 0.

In the case of `CC1=C(C(=O)Nc2cc3cn[nH]c3cc2F)C(c2ccc(C(F)(F)F)cc2)CC(=O)N1` (stereo unspecified), the “Growth Rate” value reads like this: under setting [6], 0; under setting [5], 1.

With `CC(C)OC(=O)N1CCC(Oc2ncnc3c2cnn3-c2ccc(S(C)(=O)=O)cc2F)CC1`, the “Growth Rate” value under setting [1] is reported as 1; the “Growth Rate” value under setting [2] came to 0; the “Growth Rate” value under setting [3] turned out to be 0; the “Growth Rate” value under setting [4] was 0; the “Growth Rate” value under setting [5] is 0.

`Cc1c[nH]c2nccc(Oc3c(F)cc(Nc4cc(Cl)nc(N)n4)cc3F)c12` [BAY-549]: the “Growth Rate” value reads like this: under setting [6], 0; under setting [2], 0; under setting [3], 0; under setting [4], 0; under setting [5], 0.

Turning to `O=c1cc(N2CCOCC2)oc2c(-c3cccc4c3sc3ccccc34)cccc12`, the “Growth Rate” value runs as follows: under setting [2], 0; under setting [3], 0; under setting [4], 0; under setting [5], 0.

`Cc1cc(C)c(-n2ccn3nc(-c4cccnc4)cc23)cc1NC(=O)c1cc(C#N)cc(S(F)(F)(F)(F)F)c1` [BAY-826]: the “Growth Rate” value came to 0 under setting [6]; 0 under setting [2]; 0 under setting [3]; 0 under setting [4]; 0 under setting [5].

`CCc1ccc(OCc2ccccc2C(=O)Nc2ccc3nc(C)cc(N)c3c2)cc1.Cl`: the “Growth Rate” value by setting is: under setting [2], 0; under setting [3], 0; under setting [4], 0; under setting [5], 0.

As to `CNC(=O)Nc1ccc2c(c1)[C@@]1(CC2)OC(=O)N(CC(=O)N(Cc2ccc(F)cc2)[C@@H](C)C(F)(F)F)C1=O` [A-486], the “Growth Rate” value is given as 1 under setting [6]; 0 under setting [2]; 0 under setting [3]; 0 under setting [4]; 0 under setting [5].

For `Cc1nc(N2CC[C@H](O)C2)ncc1-c1cc(C(F)(F)F)cc2[nH]ncc12`, the “Growth Rate” value was found to be 1 under setting [6]; 0 under setting [2]; 0 under setting [3]; 0 under setting [4]; 0 under setting [5].

Consider `O=c1[nH]c2ccccc2n1C1CCN(Cc2ccc(-c3[nH]c4cc5ncnc5cc4nc3-c3ccccc3)cc2)CC1`, for which the “Growth Rate” value is 1 under setting [1]; 0 under setting [2]; 0 under setting [3]; 0 under setting [4]; 0 under setting [5].

With `CC(C)c1noc(N2CCC(COc3ccc(-c4ccc(S(C)(=O)=O)cc4)nc3)CC2)n1` [GSK-1292263], the “Growth Rate” value is reported as 0 under setting [1]; 0 under setting [2]; 0 under setting [3]; 0 under setting [4]; 0 under setting [5].

For `C=CC(=O)Nc1cccc(Oc2nc(Nc3ccc(N4CCN(C)CC4)cc3OC)ncc2Cl)c1`, the “Growth Rate” value is 0 under setting [2], 0 under setting [3], 0 under setting [4] and 0 under setting [5].

In the case of `C[C@]12CC[C@@H]3c4ccc(O)cc4CC[C@H]3[C@@H]1CC[C@@H]2O` [ESTRADIOL], the “Growth Rate” value runs as follows: under setting [6], 1; under setting [1], 0; under setting [2], 0; under setting [3], 0; under setting [4], 0; under setting [5], 0.

With `CNC(=O)c1ccc(Nc2ncc(C(F)(F)F)c(NCc3nccnc3N(C)S(C)(=O)=O)n2)cc1` [DEFACTINIB], the “Growth Rate” value is, setting by setting: under setting [6], 1; under setting [2], 0; under setting [3], 0; under setting [4], 0; under setting [5], 0.

For `COc1ccccc1CN[C@H]1C2CCN(CC2)[C@H]1C(c1ccccc1)c1ccccc1` [CP-96345], the “Growth Rate” value runs as follows: under setting [6], 1; under setting [1], 0; under setting [2], 0; under setting [3], 0; under setting [4], 0; under setting [5], 0.

Consider `CCCSc1nc(N[C@@H]2C[C@H]2c2ccc(F)c(F)c2)c2nnn([C@@H]3C[C@H](OCCO)[C@@H](O)[C@H]3O)c2n1` [TICAGRELOR], for which the “Growth Rate” value under setting [1] was determined as 0; the “Growth Rate” value under setting [2] was found to be 0; the “Growth Rate” value under setting [3] came out at 0; the “Growth Rate” value under setting [4] was found to be 0; the “Growth Rate” value under setting [5] was determined as 0.

With `CNC(=O)Nc1ccc(-c2nc(N3CC4CCC(C3)O4)c3cnn(C4CCC5(CC4)OCCO5)c3n2)cc1`, the “Growth Rate” value under setting [2] came to 0, the “Growth Rate” value under setting [3] was determined as 0, the “Growth Rate” value under setting [4] stood at 0 and the “Growth Rate” value under setting [5] stood at 0.

Regarding `CC(C)Oc1ccccc1C(=O)Nc1ccccc1C(=O)Nc1cccc(S(=O)(=O)C(F)(F)F)c1`, the “Growth Rate” value came to 0 under setting [6]; 0 under setting [2]; 0 under setting [3]; 0 under setting [4]; 0 under setting [5].

As for `Cl.O=C(O)c1cc(-c2ccc(C3CCNCC3)cc2)c2ccc(-c3ccc(C(F)(F)F)cc3)cc2c1`, the “Growth Rate” value turned out to be 0 under setting [6]; 0 under setting [2]; 1 under setting [7]; 0 under setting [3]; 0 under setting [4]; 0 under setting [5].

Take `CC(C)NC(=O)N1CC[C@H](NC2=Nc3cc(F)ccc3N(CC(F)F)c3ccc(Cl)cc32)C1`: the “Growth Rate” value turned out to be 0 under setting [6]; 0 under setting [7]; 1 under setting [3]; 1 under setting [4]; 1 under setting [5]; 0 (24 h, replicate number 2, timepoint 24 hours).

Take `COC(=O)C1=C(C)NC(C)=C(C(=O)OCCCN2CCC(c3ccccc3)(c3ccccc3)CC2)[C@H]1c1cccc([N+](=O)[O-])c1` [NIGULDIPINE]: the “Growth Rate” value under setting [1] was 0; the “Growth Rate” value under setting [2] is reported as 0; the “Growth Rate” value under setting [3] was 0; the “Growth Rate” value under setting [4] turned out to be 0; the “Growth Rate” value under setting [5] is 0.

Consider `CC(C)CC(=O)Nc1[nH]nc2c1CN(C(=O)C1CCN(C)CC1)C2(C)C` [PHA-793887], for which the “Growth Rate” value came out at 1 under setting [6]; 0 under setting [2]; 0 under setting [3]; 0 under setting [4]; 0 under setting [5].

Consider `COc1ccc(-c2ccc3ncc4c(c3c2)n(-c2ccc(N3CCNCC3)c(C(F)(F)F)c2)c(=O)n4C)cn1.O=C(O)/C=C\C(=O)O` [BGT-226], for which the “Growth Rate” value worked out at 0 under setting [2], 0 under setting [3], 0 under setting [4] and 0 under setting [5].

Take `Cc1ccc2c(c1)c1c(n2CCc2ccc(C)nc2)CCN(C)C1` [LATREPIRDINE]: the “Growth Rate” value under setting [1] is 0; the “Growth Rate” value under setting [2] is given as 0; the “Growth Rate” value under setting [3] is given as 0; the “Growth Rate” value under setting [4] stood at 0; the “Growth Rate” value under setting [5] was found to be 0.

With `COc1cc(Nc2nccc(-c3cnn4nc(OC)ccc34)n2)cc(C(F)(F)F)c1`, the “Growth Rate” value runs as follows: under setting [2], 0; under setting [3], 0; under setting [4], 0; under setting [5], 0.

Consider `CN(c1ccccc1CNc1nc(Nc2ccc3c(c2)CC(=O)N3)ncc1C(F)(F)F)S(C)(=O)=O`, for which the “Growth Rate” value came out at 0 under setting [2], 0 under setting [3], 0 under setting [4] and 0 under setting [5].

In the case of `CCc1nn(CCCN2CCN(c3cccc(Cl)c3)CC2)c(=O)n1CCOc1ccccc1.Cl` [NEFAZODONE HYDROCHLORIDE], the “Growth Rate” value was 0 under setting [1]; 0 under setting [2]; 0 under setting [3]; 0 under setting [4]; 0 under setting [5].

In the case of `CN1CCN(Cc2cc(NC(=O)c3ccc4c(c3)CN(c3ccccc3)CC4)cc(C(F)(F)F)c2)CC1`, the “Growth Rate” value is listed as 0 under setting [2], 0 under setting [3], 0 under setting [4] and 0 under setting [5].

As for `CNCc1ccccc1-c1csc([C@@H](C)Nc2nc(C)nc3cc(OC)c(OC)cc23)c1` [BAY-293], the “Growth Rate” value under setting [2] was 0, the “Growth Rate” value under setting [3] was 0, the “Growth Rate” value under setting [4] is recorded as 0 and the “Growth Rate” value under setting [5] came to 0.

On to `CC(C)(C)NC[C@H](O)COc1nsnc1N1CCOCC1` [TIMOLOL], for which the “Growth Rate” value by setting is: under setting [6], 0; under setting [2], 0; under setting [3], 0; under setting [8], 1; under setting [4], 0; under setting [5], 0.

In the case of `C#Cc1cccc(Nc2ncnc3cc(OCCOC)c(OCCOC)cc23)c1` [ERLOTINIB], the “Growth Rate” value by setting is: under setting [6], 0; under setting [2], 0; under setting [3], 0; under setting [4], 0; under setting [5], 0.

As for `CN1CCN(Cc2ccc(Nc3ncc(Cl)c(Nc4ccccc4S(=O)(=O)N(C)C)n3)cc2)CC1` [DUBERMATINIB], the “Growth Rate” value under setting [6] was determined as 0; the “Growth Rate” value under setting [1] came to 1; the “Growth Rate” value under setting [7] is 0; the “Growth Rate” value under setting [3] stood at 1; the “Growth Rate” value under setting [8] stood at 0; the “Growth Rate” value under setting [4] amounted to 0. Moreover, the “Growth Rate” value under setting [5] was determined as 0.

For `Cc1cccc(CN2CCN(C(c3ccccc3)c3ccc(Cl)cc3)CC2)c1.Cl.Cl` (stereo unspecified), the “Growth Rate” value is on record as 1 under setting [6]; 0 under setting [1]; 0 under setting [2]; 0 under setting [3]; 0 under setting [4]; 0 under setting [5].

As to `C=CC(=O)Nc1ccc2[nH]c(=O)n(C3CCN(Cc4ccc(-c5nc6cc[nH]c(=O)c6cc5-c5ccccc5)cc4)CC3)c2c1` [Borussertib], the “Growth Rate” value is, setting by setting: under setting [6], 0; under setting [1], 1; under setting [2], 0; under setting [3], 0; under setting [4], 0; under setting [5], 0.

For `O=C(c1cc2c(cc1F)OC(c1ccc(F)cc1)(c1ccc(Cl)cc1Cl)O2)N1CCOCC1` (stereo unspecified), the “Growth Rate” value is reported as 0 under setting [6]; 0 under setting [2]; 0 under setting [3]; 0 under setting [4]; 0 under setting [5].

As for `Cc1cc(NC(=O)c2cccc(S(F)(F)(F)(F)F)c2)cc(-n2ccn3nc(-c4cccnc4)cc23)c1` [BAY-309], the “Growth Rate” value by setting is: under setting [6], 1; under setting [2], 0; under setting [3], 0; under setting [4], 0; under setting [5], 0.

Turning to `COc1cc2ncn(-c3cc(OCc4ccccc4C(F)(F)F)c(C(N)=O)s3)c2cc1OC` [GW843682X], the “Growth Rate” value by setting is: under setting [6], 0; under setting [3], 0; under setting [4], 0; under setting [5], 0.
